Source: patent US8101768B2, “Cyclic amine compound and pest control agent” (Nippon Soda Co., Ltd., priority 2004, dated 2012)

Each compound was assayed on organophosphorous agent resistant two-spotted spider mites (assay: Effect on Two-spotted Spider Mite (spray on kidney bean leaves)). Conditions: 125 ppm, water dispersible powder of Formulation Example 1 sprayed, 17 female adults, 25° C., 65% humidity, 3 days.
Format: in vivo
Excerpt: Effect on Two-spotted Spider Mite
17 female adults of organophosphorous agent resistant two-spotted spider mites were inoculated onto the first leaves of kidney beans seeded onto 3.5 inch pots and germinated 7 to 10 days before, onto which each of liquid agents, diluted with water so as to adjust the respective concentration of the chemical compounds to 125 ppm according to the formulation of the water dispersible powder shown in the aforementioned Formulation Example 1, was sprayed. After they were left in a thermostatic chamber at 25° C. in 65% humidity for 3 days, the rate of killed adults was investigated. The examination was repeated twice. As the results, the following chemical compounds killed 100% of the adults.

| SMILES | rate of killed adults |
| --- | --- |
| COC(C)CCc1cc(C(F)(F)F)ccc1OC1CC2CCC(C1)N2c1ccc(C(F)(F)F)cn1 (stereo not shown) [2-192] | 100% |
| CCC(O)c1cc(C(F)(F)F)ccc1OC1CCN(c2ccc(C(F)(F)F)cn2)CC1 (stereo not shown) [1-67] | 100% |
| COCC(C)OC(=O)c1cc(C(F)(F)F)ccc1OC1CC2CCC(C1)N2c1ccc(C(F)(F)F)cn1 (stereo not shown) [2-234] | 100% |
| CCCN(C)c1cc(C(F)(F)F)ccc1OC1CC2CCC(C1)N2c1ccc(C(F)(F)F)cn1 (stereo not shown) [2-161] | 100% |
| CC(C)COc1cc(C(F)(F)F)ccc1OC1CC2CCC(C1)N2c1ccc(C(F)(F)F)cn1 (stereo not shown) [2-98] | 100% |
| C=CCCOc1cc(C(F)(F)F)ccc1OC1CC2CCC(C1)N2c1ccc(C(F)(F)F)cn1 (stereo not shown) [2-144] | 100% |
| CC(C)(C)C(=O)Oc1cc(C(F)(F)F)ccc1OC1CC2CCC(C1)N2c1ccc(C(F)(F)F)cn1 (stereo not shown) [2-150] | 100% |
| CS(=O)(=O)Oc1cc(C(F)(F)F)ccc1OC1CC2CCC(C1)N2c1ccc(C(F)(F)F)cn1 (stereo not shown) [2-151] | 100% |
| COC(C)COc1cc(C(F)(F)F)ccc1OC1CC2CCC(C1)N2c1ccc(C(F)(F)F)cn1 (stereo not shown) [2-130] | 100% |
| FC(F)(F)c1ccc(N2C[C@H]3CC[C@@H](C2)[C@@H]3Oc2ccc(C(F)(F)F)cc2OCc2ccccc2)nc1 [5-106] | 100% |
| CCCOc1cc(C(F)(F)F)cc(Cl)c1OC1CCN(c2ccc(C(F)(F)F)cn2)CC1 [1-18] | 100% |
| CC(C)S(=O)(=O)Oc1cc(C(F)(F)F)ccc1OC1C2CCC1CN(c1ccc(C(F)(F)F)cn1)C2 (stereo not shown) [5-164] | 100% |
| COCCCc1cc(C(F)(F)F)ccc1OC1CC2CCC(C1)N2c1ccc(C(F)(F)F)cn1 (stereo not shown) [2-190] | 100% |
| FC(F)(F)c1ccc(N2CC3CCC(C2)C3Oc2ccc(C(F)(F)F)cc2OCc2ccoc2)nc1 (stereo not shown) [5-207] | 100% |
| COCOc1cc(C(F)(F)F)ccc1OC1CC2CCC(C1)N2c1ccc(C(F)(F)F)cn1 (stereo not drawn) [2-102, 3α-[2-methoxymethoxy-4-(trifluoromethyl)phenoxy]-8-[5-(trifluoromethyl)-2-pyridyl]-8-azabicyclo[3.2.1]octane] | 100% |
| CCCNc1cc(C(F)(F)F)ccc1OC1CCN(c2ccc(C(F)(F)F)cn2)CC1 [1-173] | 100% |
| FC(F)(F)c1ccc(N2CC3CCC(C2)C3Oc2ccc(C(F)(F)F)cc2OCC2CCCO2)nc1 (stereo not shown) [5-214] | 100% |
| CC(=O)OC(CC(C)C)c1cc(C(F)(F)F)ccc1O[C@@H]1[C@@H]2CC[C@H]1CN(c1ccc(C(F)(F)F)cn1)C2 (stereo partly shown) [5-258] | 100% |
| C=CC(C)OC(=O)c1cc(C(F)(F)F)ccc1OC1CC2CCC(C1)N2c1ccc(C(F)(F)F)cn1 (stereo not shown) [2-235] | 100% |
| FC(F)COc1cc(C(F)(F)F)ccc1OC1CC2CCC(C1)N2c1ccc(C(F)(F)F)cn1 (stereo not shown) [2-246] | 100% |
| CCC(=O)Oc1cc(C(F)(F)F)ccc1OC1C2CCC1CN(c1ccc(C(F)(F)F)cn1)C2 (stereo not shown) [5-198] | 100% |
| CC(=O)OC(C)COc1cc(C(F)(F)F)ccc1O[C@@H]1[C@@H]2CC[C@H]1CN(c1ccc(C(F)(F)F)cn1)C2 (stereo partly shown) [5-114] | 100% |
| FC(F)(F)c1ccc(N2CC3CCC(C2)C3Oc2ccc(C(F)(F)F)cc2OCC2CCCO2)nc1 (stereo not shown) [5-204] | 100% |
| CC(C)(O)COc1cc(C(F)(F)F)ccc1OC1C2CCC1CN(c1ccc(C(F)(F)F)cn1)C2 (stereo not shown) [5-129] | 100% |
| CC(=O)COc1cc(C(F)(F)F)ccc1O[C@@H]1[C@@H]2CC[C@H]1CN(c1ccc(C(F)(F)F)cn1)C2 [5-126] | 100% |
| CCCOc1cc(C(F)(F)F)ccc1O[C@@H]1[C@@H]2CC[C@H]1CN(c1ccc(C=O)cn1)C2 [5-100] | 100% |
| CCON=Cc1cc(C(F)(F)F)ccc1OC1CC2CCC(C1)N2c1ccc(C(F)(F)F)cn1 (stereo not shown) [2-203] | 100% |
| CCCSc1cc(C(F)(F)F)ccc1OC1CC2CCC(C1)N2c1ccc(C(F)(F)F)cn1 (stereo not shown) [2-165] | 100% |
